Assay results as given in patent publication US8445006B2, “Biomolecular coating for implants” (Georgia Tech Research Corporation, priority 2006, dated 2013).

Columns and labels:
[1] = system: bone marrow stromal cells; assay: Osteoblast-specific gene expression by qRT-PCR; format: cell-based, rat
Description: Primary bone marrow stromal cells were harvested from the femora of young adult male Wistar rats in accordance with an IACUC-approved protocol. After excision, hindleg femora and tibiae were cleared of soft tissue and rinsed in growth medium (α-minimal essential medium supplemented with 10% fetal bovine serum, 1% penicillin-streptomycin, and 0.3 μg/ml amphotericin B). The ends of the long bones were then removed and the marrow space was flushed with culture medium (3-5 ml), using a syringe with an 18-gauge needle. Marrow isolates were pooled, centrifuged, resuspended in growth medium, and seeded for adhesion-dependent selection on tissue culture polystyrene dishes. Non-adherent hematopoietic cells were removed during subsequent medium exchanges, which occurred every other day. Cells were subcultured every two days according to standard techniques. For in vitro osteogenic assays, cells were seeded at 10,000 cells/cm^2 in growth medium. After 24 h, cultures were maintained in osteogenic medium consisting of growth medium supplemented with 50 μg/ml L-ascorbic acid and 3 mM sodium β-glycerophosphate.
Gene expression was analyzed by qRT-PCR. Total RNA was isolated at 7 days in culture using the Qiagen RNeasy RNA isolation kit. During RNA isolation and purification, samples were treated with DNaseI (27 Kunitz units/sample) for 15 min at room temperature to eliminate any genomic DNA contamination. The concentration of purified RNA was quantified using a NanoDrop™ (NanoDrop Technologies) and 1 μg of total RNA was used to synthesize cDNA templates by oligo(dT) priming using the Superscript First-Strand cDNA Synthesis System™.
qRT-PCR was performed with the ABI Prism 7700 Sequence Detection System (Applied Biosystems; 40 cycles; melting for 15 s at 95° C.; annealing and extending for 60 s at 60° C.) using SYBR Green DNA intercalating dye. Gene transcript concentration in the sample cDNA template solutions was quantified by preparing a functional range of dilutions from an absolute standard for each gene. Linear standard curves were then generated by plotting the log of the known concentration versus the CT value (the cycle number at which the fluorescence reached a threshold level). Oligonucleotide primers (Table 1) were designed using Primer Express™ software (Applied Biosystems).

[2] = system: rat tibia cortical bone; assay: Rat tibia cortical bone implantation, histology and bone-implant contact histomorphometry; format: in vivo; settings: 4 weeks; for histology: bone matrix around implants: poly(OEGMA) brush implants, 0.9 pmol/cm^2
Description: (§1) Commercially pure titanium implants (FIG. 4) were sonicated in de-ionized water for 20 min to remove surface debris. Implants were then dipped in 4% HF for 30 sec to remove the existing oxide layer and then incubated in 35% HNO3 for 30 min at 50° C. to regenerate a new oxide coating. Samples were transferred to 1.8 N NaOH for 1 min to terminate the oxidation reaction. Implants were then rinsed and boiled in de-ionized water for 1 h. To create the bioactive coating, the implants were incubated in 20 μg/ml GFOGER peptide (SEQ ID NO:1) or type I collagen solution for 1 h. Control titanium rods were incubated in PBS.
(§2) Implantations were conducted in accordance with an IACUC-approved protocol. Both hind legs of anesthetized, mature Sprague-Dawley male rats (250-350 g) were shaved and scrubbed with alcohol. The medial aspect of the proximal tibial metaphysis was exposed through an antero-medial skin incision, leaving the medial collateral ligament intact. Using a saline-cooled drill, two defects were created in each tibia. Sterile implant rods were press fit into the defects. Periosteum was mobilized and sutured over the implantation site, and the skin was closed with wound clips. Subjects were euthanized after 4 weeks and proximal tibiae were fixed in neutral buffered formalin for histology or recovered without fixation and maintained in PBS-moistened gauze for immediate mechanical testing.
Excised tibiae were fixed in 10% neutral buffered formalin for 1 week. […] Ground sections of 50-80 μm were generated using the Exakt Grinding System™. Two longitudinal ground sections were generated per tibia, each containing two titanium plugs inserted transverse to the tibia's long axis. Sections were then stained with Sanderson's Rapid Bone Stain™ and a van Gieson counter stain. Bone implant contact (BIC) was measured as the percentage of implant's circumference that was in direct contact with bone tissue (Adobe Photoshop® CS imaging software).
(§3) To evaluate the performance of the bioactive GFOGER peptide (SEQ ID NO:1) treatment in vivo, osseointegration in a rat tibia cortical bone model was quantified using quantitative histomorphometry and pull-out mechanical testing. A cylindrical titanium implant rod with a tapered stop collar was designed (FIG. 4). The tapered head ensures that all implants are inserted into the bone at the same depth, guaranteeing uniform bone contact among treatments. Using a saline-cooled drill, two defects 2 mm in diameter were created in the medial aspect of the proximal tibial metaphysis. Implant rods consisting of GFOGER peptide (SEQ ID NO:1) functionalized or untreated (control) titanium were press fit into the cortical defects. After four weeks, the rat tibiae were harvested and evaluated for bone apposition by histological staining and mechanical integration by pull-out testing. […] Representative micrographs show 50-80 μm longitudinal ground sections of rat tibia stained with Sanderson's Rapid Bone Stain™ and van Gieson counterstain. Cells stain dark to light blue, soft tissue elements stain blue-green, and bone matrix stains yellow orange to autumn orange.
(§4) Osseointegration of implants in a rat tibia cortical bone model was quantified to evaluate the in vivo performance of the engineered titanium surfaces in bone healing. Importantly, this in vivo model provides a rigorous platform to evaluate implant coating function in a relevant orthopaedic setting. Two 2.0-mm diameter defects were drilled into the medial aspect of the proximal tibial metaphysis using a saline cooled drill. Tapered cylindrical implants (FIG. 4) of clinical-grade titanium were press-fit into the cortical defects.

[3] = system: rat tibia cortical bone; assay: Rat tibia cortical bone implantation, pull-out mechanical testing; format: in vivo
Description: as §1, §2, §3, §4

[4] = system: osteoblastic cells; assay: In vitro bioresistance and adhesive capacity of poly(OEGMA) brushes on titanium; format: cell-based; settings: serum-containing media, osteoblastic cells 1 h
Description: Surfaces were incubated in serum-containing media for various times and subsequently challenged with osteoblastic cells for 1 h.

[5] = 7-day cultures, tethered brushes vs RGD supports
[6] = 4 weeks, tethered brushes 0.9 pmol/cm^2
[7] = 7 day cultures, adsorbed coating vs untreated titanium

Substance | bone sialoprotein (BSP) transcript levels [1, 5] | osteocalcin (OCN) transcript levels [1, 5] | Runx2/Cbfa1 expression levels ([1]; 7-day cultures, tethered brushes vs equimolar RGD brushes) | bone-implant apposition ([2]; passively coated (20 μg/ml) vs unmodified titanium or pFN-coated) | histology: bone matrix around implants [2] | bone-implant contact area vs unmodified titanium implant ([2]; tethered brush implants) | mechanical fixation vs unmodified titanium ([3]; 4 weeks, tethered brushes) | enhancement in fixation over RGD-tethered implants [3, 6] [fold] | improvement in fixation compared to unmodified poly(OEGMA) brush coating [3, 6] [fold] | dependence of mechanical fixation on tethered surface density ([3]; varying tethered densities, hyperbolic relationship R^2=0.87) | cell adhesion on ligand-presenting poly(OEGMA) brushes [4] | Runx2/Cbfa1 expression levels [1, 7] | bone sialoprotein gene expression [1, 7] | osteocalcin gene expression [1, 7] | bone apposition (bone implant contact, BIC) ([2]; passively coated implants vs untreated titanium) | histology: peri-implant bone mineral ([2]; passively coated titanium implants (20 μg/ml)) | mechanical fixation (pull-out force) ([3]; 4 weeks, vs type I collagen or untreated titanium) | any differentiation marker vs serum-exposed unmodified titanium ([1]; tethered brushes) | bone apposition and mechanical fixation among brush implant groups ([3]; 4 weeks, poly(OEGMA) brush implants)
FNIII7-10: monobiotinylated recombinant fibronectin fragment spanning the 7-10th type III repeats of fibronectin; α5β1 integrin ligand | increased transcript levels | increased transcript levels | elevated | enhanced bone-implant apposition | extensive and contiguous bone matrix | significantly higher | higher mechanical fixation | 2.9 | ~4 | increased with FNIII7-10 surface density | comparable to the unmodified titanium |  |  |  |  |  |  |  | 
GGYGGGPC(GPP)5GFOGER(GPP)5GPC [GFOGER peptide] |  |  |  |  |  |  |  |  |  |  |  | elevated | greater levels of gene expression | greater levels of gene expression | nearly two-fold enhancement | substantial and contiguous bone mineral | significantly higher mechanical fixation |  | 
GRGDSPC [RGD peptide, linear RGD oligopeptide purchased from BACHEM; primarily supports αvβ3-mediated adhesion, reference compound] |  |  |  |  | Less bone tissue was observed |  |  |  |  |  | comparable to the unmodified titanium |  |  |  |  |  |  | No differences were observed | no differences in bone apposition or mechanical fixation
